In patent publication US20180353512A1, “COMBINATION THERAPIES FOR TREATING B-CELL MALIGNANCIES” (GILEAD SCIENCES, INC., priority 2015, published 2018):

Assays:
[1] = test system: c-Myc; assay: c-Myc RNAseq and western blot in ABC-DLBCL cell lines; type: cell-based
Description: Gene expression levels and mutations were determined by […]. The following bioinformatics platforms were used to analyze the sequence reads: DNA sequencing reads were aligned to human reference genome by BWA. Single nucleotide variants were identified using VarScan and were annotated using SnpEff Putative somatic mutations were prioritized by mutant allele frequency, recurrence and predicted functional impact. RNA sequencing reads were aligned to human reference genome using STAR and RNA abundance was quantified using RSEM. The Bioconductor package edgeR was used to normalize sequence count and limma was used to conduct differential gene expression analysis.
Protein expression was measured using Simple Western, SDS/PAGE and Western Blot or Peggy Sue (ProteinSimple), generally according to the procedures described above in Example 3B. Primary antibodies used to test phosphorylated protein or total protein levels include antibodies against: p-AKT (S473), p-AKT (T308), AKT, p-ERK (T202/Y204), p-S6 (S235/236), S6, p-PDK1 (S241), p-PLCγ2 (Y1217), p-GSK3β (S9), p-STAT3 (Y705), p-IκBα (S32), IκBα, p-SYK (Y525/526), p-BTK (Y223), PI3Kγ, PTEN, and actin.

[2] = test system: TMD8; assay: CellTiter-Glo viability assay at 96 h (Example 5); type: cell-based; conditions: Homo sapiens
Description: Growth inhibition to Idelalisib or other inhibitors was assessed using CellTiter-Glo viability assay at 96 h. […] Cell lines were analyzed by whole exome sequencing, RNASeq, and phosphoproteomics. Protein expression was measured using Simple Western and SDS/PAGE and western blot. Caspase 3/7 was measured using Caspase-Glo 3/7 assay; apoptosis was measured with Annexin V assay and propidium iodide by flow cytometry.
Cell viability EC50 was determined using a sigmoidal dose-response (variable slope) curve generated from quadruplicate samples. Statistical significance was determined using the student's t-test for cell viability and two-tailed paired t-test for apoptosis experiments in Prism (GraphPad).

[3] = test system: p-S6 (S235/236); assay: Western Blot of TMD8 xenograft tumor samples; type: in vivo, mice; conditions: single agent; PI3Kδ inhibitor 5 mg/kg, Compound B 10 mg/kg
Description: Tumor samples obtained from the study were lysed and Western Blot was performed on the samples to determine the level of BTK and S6 phosphorylation, a downstream effector of PI3K signaling. Western Blots were performed according to the Western Blot procedure described in Example 3B above, using antibodies against p-S6 (S235/236), p-BTK (Y223), BTK and actin. Protein levels were determined using Peggy Sue (ProteinSimple) automated Western Blot system. Normalized AUC were determined for each of the treatment groups: p-BTK (Y223) was normalized to total BTK protein, and p-S6 (S235/236) was normalized to actin.

Structure (SMILES)	c-Myc mRNA (RNAseq) ([1]; 500 nM idelalisib, sensitive cell lines (TMD8 and Ri-1))	c-Myc (western blot) ([1]; TMD8^S)	EC50 [2]	effect on p-S6 in tumors [3]
CCC(Nc1ncnc2[nH]cnc12)c1nc2cccc(F)c2c(=O)n1-c1ccccc1 (stereo not shown) [Idelalisib, 2-(1-((9H-Purin-6-yl)amino)propyl)-5-fluoro-3-phenylquinazolin-4(3H)-one]	c-Myc mRNA downregulation	inhibited	42 nM	–
CC#CC(=O)N1CC[C@@H](n2c(=O)n(-c3ccc(Oc4ccccc4)cc3)c3c(N)ncnc32)C1 [Compound B, 6-amino-9-[(3R)-1-(2-butynoyl)-3-pyrrolidinyl]-7-(4-phenoxyphenyl)-7,9-dihydro-8H-purin-8-one]	–	–	–	did not have an effect
